Assay [1] relates to AMARE. The experiment in a line: B. Herbicidal post-emergence action on harmful plants (Tables B). In kind it is in vivo, Amaranthus retroflexus. The following applies: application rate 1280 g/ha; Table B8. The protocol: (§1) Seeds of mono- and dicotyledonous weed plants were placed in plastic pots in sandy loam soil (doubly sown with in each case one species of mono- or dicotyledonous weed plants per pot), covered with soil and cultivated in a greenhouse under controlled growth conditions. 2 to 3 weeks after sowing, the test plants were treated at the one-leaf stage. The compounds of the invention, formulated in the form of wettable powders (WP) or as emulsion concentrates (EC), were applied onto the green parts of the plants as aqueous suspension or emulsion with addition of 0.5% additive at a water application rate of 600 liters per hectare (converted). After the test plants had been kept in the greenhouse under optimum growth conditions for about 3 weeks, the activity of the preparations was rated visually in comparison to untreated controls. For example, 100% activity = the plants have died, 0% activity = like control plants. Tables B1 to B12, below, show the effects of selected compounds of the general formula (I) according to table 1 on various harmful plants and an application rate corresponding to 1280 g/ha or below obtained by the experimental procedure mentioned above. Table B1a: post-emergence activity at 1280g/ha against ABUTH in %

Assay [2] deals with STEME. The description is as above. Format: in vivo, Stellaria media. The following applies: application rate 1280 g/ha; Table B6. The method, then: as §1
Assay [3] relates to SETVI. Nature of the assay: A. Herbicidal pre-emergence action on harmful plants (Tables A). Format: in vivo, Setaria viridis. The following applies: visual grading after ca. 3 weeks vs untreated controls, 100% = plants have died off, 0% = as control plants. The method in brief: (§2)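 Values are visual percent damage relative to untreated controls, scored ca. 3 weeks after the compound was sprayed on the covering soil of sown pots (sandy loam) at rates up to 1280 g/ha, formulated as WP or EC with 0.5% additive.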

The test system of assay [4] is LOLRI. Described as above. Format: in vivo, Lolium rigidum. The following applies: visual grading after ca. 3 weeks vs untreated controls, 100% = plants have died off, 0% = as control plants. The method in brief:
as §2

Assay [5] has as its system DIGSA. The assay is described as above. Format: in vivo, Digitaria sanguinalis. The method in brief: as §2
Assay [6] has as its system POAAN. The description is as above. Format: in vivo, Poa annua. The method in brief: as §2
Assay [7] deals with ECHCG. The description is as above. To be noted: visual grading after ca. 3 weeks vs untreated controls, 100% = plants have died off, 0% = as control plants. In kind it is in vivo, Echinochloa crus-galli. The method in brief:
as §2

In assay [8] the test system is POAAN. Nature of the assay: B. Herbicidal post-emergence action on harmful plants (Tables B). In kind it is in vivo, Poa annua. To be noted: application rate 1280 g/ha; Table B7a. The method in brief:
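Greenhouse weeds grown in sandy loam were sprayed post-emergence at the one-leaf stage, 2-3 weeks after sowing. Compounds were applied as WP or EC in water with 0.5% additive at 600 L/ha, at 1280 g/ha or below. Visual damage was rated after about 3 weeks versus untreated plants (0-100%).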

Assay [9] deals with MATIN. The experiment in a line: A. Herbicidal pre-emergence action on harmful plants (Tables A). Format: in vivo, Matricaria inodora. To be noted: visual grading after ca. 3 weeks vs untreated controls, 100% = plants have died off, 0% = as control plants. The method in brief:
as §2

In assay [10] the test system is STEME. Described as above. In kind it is in vivo, Stellaria media. The following applies: visual grading after ca. 3 weeks vs untreated controls, 100% = plants have died off, 0% = as control plants. An outline of the steps:
as §2

Assay [11] deals with VERPE. The experiment in a line: B. Herbicidal post-emergence action on harmful plants (Tables B). Format: in vivo, Veronica persica. The following applies: application rate 1280 g/ha; Table B11a. The method, then:
as §1

Assay [12] relates to DIGSA. Described as above. In kind it is in vivo, Digitaria sanguinalis. The following applies: application rate 1280 g/ha; Table B12a. The method, then:
as §1

Assay [13] has as its system ECHCG. Described as above. Format: in vivo, Echinochloa crus-galli. The following applies: application rate 1280 g/ha; Table B2a. The method, then:
as §1

Assay [14] has as its system ALOMY. Nature of the assay: A. Herbicidal pre-emergence action on harmful plants (Tables A). The following applies: application rate 1280 g/ha; Table A9a. In kind it is in vivo, Alopecurus myosuroides. The source says: (§3) Seeds of mono- and dicotyledonous weed plants were sown in plastic pots (double sowings with one species of mono- and one species of dicotyledonous weed plants per pot), in sandy loam, and covered with soil. The compounds according to the invention, formulated in the form of wettable powders (WP) or as emulsifiable concentrates (EC), were applied to the surface of the covering soil as aqueous suspension or emulsion, with the addition of 0.5% of an additive, at an application rate of 6001 of water per hectare (converted). Following treatment, the pots were placed in a greenhouse and kept under optimum growth conditions for the test plants. The visual grading of the damage to the test plants was carried out after ca. 3 weeks in comparison to untreated controls (herbicidal effect in percent (%): 100% effect = plants have died off, 0% effect = as control plants). Tables A1 to A12, below, show the effects of selected compounds of the general formula (I) according to table 1 on various harmful plants and an application rate corresponding to 1280 g/ha or below obtained by the experimental procedure mentioned above. Table A1: pre-emergence activity at 1280g/ha against ABUTH in %

Assay [15] has as its system AMARE. The description is as above. Format: in vivo, Amaranthus retroflexus.
From the text: as §3

For assay [16], the system named is ABUTH. Nature of the assay: B. Herbicidal post-emergence action on harmful plants (Tables B). The following applies: application rate 1280 g/ha; Table B1a. In kind it is in vivo, Abutilon theophrasti. The method, then: as §1
Where [17] appears, read: application rate 320 g/ha, Table A12b.
Setting [18] is: application rate 1280 g/ha, Table A12a.
The mark [19] stands for this setting: application rate 1280 g/ha, visual grading after ca. 3 weeks vs untreated controls, 100% = plants have died off, 0% = as control plants.
Setting [20] is: application rate 320 g/ha, Table A7b.
Setting [21] is: application rate 80 g/ha, Table A7c.

Here are results for five compounds from patent publication EP4417602A1, “SUBSTITUTED PYRAZOLE CARBOXAMIDES, SALTS THEREOF AND THEIR USE AS HERBICIDALLY ACTIVE SUBSTANCES” (Bayer AG, priority 2023, dated 2024).

For the compound `CCOCc1nn(C)cc1C(=O)N1CCC1Cc1ccccc1F` (racemic) [Example I-105], the “post-emergence activity against AMARE” value in assay [1] came out at 90%. Besides, the “post-emergence activity against STEME” value in [2] worked out at 90%. Further, the “pre-emergence activity against SETVI” value in assay [3] (application rate 1280 g/ha) worked out at 100%. Moreover, the “pre-emergence activity against LOLRI” value in assay [4] (application rate 1280 g/ha) is recorded as 90%. Moreover, the “pre-emergence activity against DIGSA” value in [5] (setting [17]) and in assay [5] (setting [18]) was 100% in each case. The “pre-emergence activity against POAAN” value in assay [6] (setting [19]) is 100%. Besides, the “pre-emergence activity against ECHCG” value in [7] (application rate 320 g/ha) is reported as 90%; in assay [7] (application rate 1280 g/ha), 100%. Besides, the “post-emergence activity against POAAN” value in [8] is listed as 90%.
Take `Cn1cc(C(=O)N2CCC2Cc2c(F)cccc2Cl)c(COCC(F)F)n1` (racemic) [Example I-107]: the “pre-emergence activity against MATIN” value in assay [9] (application rate 1280 g/ha) was 100%. In assay [10] (application rate 1280 g/ha), the “pre-emergence activity against STEME” value worked out at 90%. The “post-emergence activity against AMARE” value in assay [1] was 90%. In assay [2], the “post-emergence activity against STEME” value is recorded as 90%. The “pre-emergence activity against SETVI” value in [3] (application rate 1280 g/ha) amounted to 100%. Also, the “post-emergence activity against VERPE” value in assay [11] amounted to 90%. Also, in assay [4] (application rate 1280 g/ha), the “pre-emergence activity against LOLRI” value came to 90%. Moreover, the figures for the “pre-emergence activity against DIGSA” value in assay [5] (setting [17]) and in assay [5] (setting [18]) were 90% and 100%, respectively. For the same compound, the “pre-emergence activity against POAAN” value in assay [6] (setting [20]) and in assay [6] (setting [19]) was 100% each time. The “pre-emergence activity against ECHCG” value in [7] (application rate 320 g/ha) is given as 90%; in assay [7] (application rate 1280 g/ha) it was 100%.
As for `C=CCn1cc(C(=O)N2CCCC2Cc2ccccc2F)c(COC)n1` (racemic) [Example I-039], in [12], the “post-emergence activity against DIGSA” value is given as 90%. The “pre-emergence activity against MATIN” value in assay [9] (application rate 1280 g/ha) is 90%. The “pre-emergence activity against STEME” value in assay [10] (application rate 1280 g/ha) worked out at 90%. Moreover, in assay [13], the “post-emergence activity against ECHCG” value worked out at 90%. Besides, the “pre-emergence activity against SETVI” value in [3] (application rate 320 g/ha) and in assay [3] (application rate 1280 g/ha) was 90% throughout. The “pre-emergence activity against LOLRI” value in assay [4] (application rate 320 g/ha) and in assay [4] (application rate 1280 g/ha) was 90% each time. Besides, the “pre-emergence activity against DIGSA” value in assay [5] (setting [17]) and in assay [5] (setting [18]) was 90% in each case. The figures for the “pre-emergence activity against POAAN” value in assay [6] (setting [21]), in assay [6] (setting [20]) and in assay [6] (setting [19]) were 90%, 100% and 100%, respectively. In addition, the “pre-emergence activity against ECHCG” value in [7] (application rate 1280 g/ha) came to 90%. Moreover, in assay [14], the “pre-emergence activity against ALOMY” value came to 90%.
Regarding `COCc1nn(C)cc1C(=O)N1CCCC1Cc1c(F)cccc1Cl` (single isomer, unassigned) [Example I-087], the “pre-emergence activity against MATIN” value in [9] (application rate 320 g/ha) and in [9] (application rate 1280 g/ha) was 90% throughout. The “pre-emergence activity against STEME” value in assay [10] (application rate 320 g/ha) and in assay [10] (application rate 1280 g/ha) was 90% throughout. For the same compound, the “pre-emergence activity against AMARE” value in assay [15] (application rate 320 g/ha, Table A8b) worked out at 90%; in assay [15] (setting [19]), 90%. The “post-emergence activity against AMARE” value in assay [1] is 90%. Moreover, the “post-emergence activity against STEME” value in assay [2] was 90%. Also, the “pre-emergence activity against SETVI” value in [3] (application rate 80 g/ha), in [3] (application rate 320 g/ha) and in [3] (application rate 1280 g/ha) was 100% in each case. Moreover, the “pre-emergence activity against LOLRI” value in assay [4] (application rate 80 g/ha), in assay [4] (application rate 320 g/ha) and in assay [4] (application rate 1280 g/ha) was 100% throughout. Further, the “pre-emergence activity against DIGSA” value is listed as 90% in [5] (application rate 80 g/ha, Table A12c); 100% in assay [5] (setting [17]); 100% in assay [5] (setting [18]). For the same compound, the “pre-emergence activity against POAAN” value in assay [6] (setting [21]), in [6] (setting [20]) and in assay [6] (setting [19]) was 100% each time. Moreover, the “pre-emergence activity against ECHCG” value in [7] (application rate 80 g/ha) is reported as 90%; in [7] (application rate 320 g/ha) it was 100%; in assay [7] (application rate 1280 g/ha), 100%. Further, in [14], the “pre-emergence activity against ALOMY” value is listed as 90%.
In the case of `COCc1nn(C)cc1C(=O)N1CCCC1Cc1ccccc1C` (racemic) [Example I-078], the “pre-emergence activity against MATIN” value in [9] (application rate 320 g/ha) and in assay [9] (application rate 1280 g/ha) was 90% throughout. Also, the “pre-emergence activity against STEME” value in assay [10] (application rate 80 g/ha), in assay [10] (application rate 320 g/ha) and in [10] (application rate 1280 g/ha) was 90% throughout. Moreover, the “post-emergence activity against ABUTH” value in assay [16] is recorded as 90%. Moreover, in assay [13], the “post-emergence activity against ECHCG” value is recorded as 90%. The “pre-emergence activity against SETVI” value in assay [3] (application rate 320 g/ha) was 90%; in assay [3] (application rate 1280 g/ha), 100%. In addition, in assay [11], the “post-emergence activity against VERPE” value is recorded as 90%. In addition, the “pre-emergence activity against LOLRI” value in [4] (application rate 320 g/ha) and in [4] (application rate 1280 g/ha) was 100% in each case. Moreover, the “pre-emergence activity against DIGSA” value in assay [5] (setting [17]) and in assay [5] (setting [18]) was 90% in each case. Besides, the “pre-emergence activity against POAAN” value in assay [6] (setting [20]) and in assay [6] (setting [19]) was 100% each time. The “pre-emergence activity against ECHCG” value was found to be 90% in assay [7] (application rate 320 g/ha) and 100% in assay [7] (application rate 1280 g/ha). In assay [14], the “pre-emergence activity against ALOMY” value turned out to be 90%. Besides, the “post-emergence activity against POAAN” value in assay [8] was determined as 90%.
